Measured values from patent US10604487B2, “Pyridinol derivative or pharmaceutically acceptable salt thereof, and pharmaceutical composition containing same as active ingredient” (Research Cooperation Foundation of Yeungnam University, priority 2016, dated 2020).
Where two headings read alike, the source gives them in different places.

Experiments:
[1] = tested on: TNF-α-induced adhesion of monocytes to intestinal epithelial cells; assay: Inhibitory activity against TNF-α-induced adhesion of monocytes (U937) to intestinal epithelial cells (HT-29); type: cell-based, human; settings: Homo sapiens
Description: HT-29 human colorectal cancer-derived epithelial cells and U937 human-derived monocytic cells were cultured in an RPMI 1640 medium containing 10% FBS and 1% penicillin/streptomycin (PS) at 37° C. under a condition of 5% CO2, and when the cells were grown to 80% or more in a culture flask, they were subcultured in a ratio of 1:3 to be used in this test. The HT-29 cells were cultured in a 24-well plate at a concentration of 2×10^5 cells/cm2, and then the medium only containing 1% FBS and 1% PS was pretreated with a test drug for 1 hour. Afterward, BCECF-loaded U937 cells by being treated with 10 μg/mL of BCECF-AM at 37° C. for 30 minutes and 10 ng/mL of TNF-α reacted with the HT-29 cells previously treated with the test drug at 37° C. for 3 hours. After the reaction, the medium was removed, and then the cells were washed with PBS twice to remove U937 cells that were not adhered. In a subsequent step, for cell lysis, 0.1% Triton X-100 (0.1 M Tris) was treated to allow a reaction at room temperature for 30 minutes, and then fluorescence was measured using a Fluostar optima microplate reader (BMG LABTECH, Germany) to quantify the cells (Carvalho et al., 1996; Thapa et al., 2008).

[2] = Cytotoxicity test (MTT), U937; type: cell-based; settings: human, U937, 48 h; for viability at 48 h, 0.01 µM / viability at 48 h, 0.1 µM / viability at 48 h, 1 µM / viability at 48 h, 10 µM / viability at 48 h, 100 µM: U937 cells (monocytic blood cancer-derived cell line), read-out: Cell viability (% of control); for IC50 at 48 h: U937 cells
Description: (§1) The human colorectal cancer cell line HT-29 and the monocytic blood cancer-derived cell line U937 were cultured in a RPMI 1640 medium containing 10% FBS and 1% penicillin/streptomycin (PS) at 37° C. under a condition of 5% CO2, and when the cells used herein were grown to 80% or more, they were subcultured at a ratio of 1:3.
(§2) Each type of cells were cultured in a 96 well plate at a concentration of 1×10^5 cells/cm2, treated with a test compound by concentration in a medium only containing 1% FBS and 1% PS at 37° C. under a condition of 5% CO2 for 48 hours and reacted with 5 mg/mL of a 3-[4,5-dimethylthiazol-2-yl]-2,5-diphenyltetrazolium bromide (MTT) reagent for 4 hours, and then the medium was completely removed, the cells were treated with DMSO, formazan crystals were dissolved for 30 minutes, and then absorbance was measured at 540 nm.

[3] = Cytotoxicity test (MTT), HT-29; type: cell-based; settings: human, HT-29, 48 h; for viability at 48 h, 0.01 µM / viability at 48 h, 0.1 µM / viability at 48 h, 1 µM / viability at 48 h, 10 µM / viability at 48 h, 100 µM: HT-29 cells (colorectal cancer cell line), read-out: Cell viability (% of control); for IC50 at 48 h: HT-29 cells, read-out: IC50 (μM), cytotoxicity
Description: as §1, §2

[4] = 1 μM test drug, HT-29/U937 adhesion, 10 ng/mL TNF-α, read-out: Inhibitory activity (%)

Cc1cccc(C(C)(C)C)c1NC(=O)Nc1nc(C)c(O)c(C)c1C [Compound 16-4, 1-(2-tert-butyl-6-methylphenyl)-3-(5-hydroxy-3,4,6-trimethylpyridin-2-yl)urea]
inhibition at 1 µM [1, 4]: 34.3% | viability at 48 h, 0.01 µM [2]: 95 ± 2.9% | viability at 48 h, 0.1 µM [2]: 91.2 ± 1.9% | viability at 48 h, 1 µM [2]: 91.3 ± 1.2% | viability at 48 h, 10 µM [2]: 85.4 ± 0.2% | viability at 48 h, 100 µM [2]: 75.5 ± 1.7% | IC50 at 48 h [2]: > 100 µM | viability at 48 h, 0.01 µM [3]: 76.6 ± 6.9% | viability at 48 h, 0.1 µM [3]: 76.8 ± 5% | viability at 48 h, 1 µM [3]: 74.7 ± 6% | viability at 48 h, 10 µM [3]: 62.1 ± 2.9% | viability at 48 h, 100 µM [3]: 43.6 ± 1.8% | IC50 at 48 h [3]: 34.7 µM

COc1cccc2c1C(=O)c1c(O)c3c(c(O)c1C2=O)C[C@@](O)(C(=O)CO)C[C@@H]3O[C@H]1C[C@H](N)[C@H](O)[C@H](C)O1 [Doxorubicin, reference compound]
viability at 48 h, 0.01 µM [2]: 93.6 ± 1.8% | viability at 48 h, 0.1 µM [2]: 91.4 ± 3.3% | viability at 48 h, 1 µM [2]: 42.2 ± 1.3% | viability at 48 h, 10 µM [2]: 38.3 ± 0.6% | viability at 48 h, 100 µM [2]: 33.2 ± 1.3% | IC50 at 48 h [2]: 0.6 µM | viability at 48 h, 0.01 µM [3]: 69.9 ± 1.1% | viability at 48 h, 0.1 µM [3]: 66.9 ± 3.3% | viability at 48 h, 1 µM [3]: 58.2 ± 6.4% | viability at 48 h, 10 µM [3]: 53.2 ± 5.1% | viability at 48 h, 100 µM [3]: 35.7 ± 2% | IC50 at 48 h [3]: 12.9 µM

Cc1nc(NC(=S)Nc2ccc(Br)cc2)c(C)c(C)c1O [Compound 18-7, 1-(4-bromophenyl)-3-(5-hydroxy-3,4,6-trimethylpyridin-2-yl)thiourea]
inhibition at 1 µM [1, 4]: 27.8%

Cc1nc(NC(=O)Nc2ccc(OC(F)(F)F)cc2)c(C)c(C)c1O [Compound 16-13, 1-(5-hydroxy-3,4,6-trimethylpyridin-2-yl)-3-(4-(trifluoromethoxy)phenyl)urea]
inhibition at 1 µM [1, 4]: 12.6%

Cc1nc(NC(=O)Nc2ccc(Br)cc2)c(C)c(C)c1O [Compound 16-8, 1-(4-Bromophenyl)-3-(5-hydroxy-3,4,6-trimethylpyridin-2-yl)urea]
inhibition at 1 µM [1, 4]: 17.2%

Cc1nc(O)c(C)c(C)c1O [Compound 28-1, 3,4,6-Trimethylpyridine-2,5-diol]
inhibition at 1 µM [1, 4]: ≥ 50%

Cc1nc(OCCCc2ccccc2)c(C)c(C)c1O [Compound 28-6, 2,4,5-Trimethyl-6-(3-phenylpropoxy)pyridin-3-ol]
inhibition at 1 µM [1, 4]: ≥ 50%

CCCCCCCCOc1nc(C)c(O)c(C)c1C [Compound 28-3, 2,4,5-Trimethyl-6-(octyloxy)pyridin-3-ol]
inhibition at 1 µM [1, 4]: 30.4%

Cc1nc(NC(=O)Nc2ccc(F)cc2)c(C)c(C)c1O [Compound 16-7, 1-(4-Fluorophenyl)-3-(5-hydroxy-3,4,6-trimethylpyridin-2-yl)urea]
inhibition at 1 µM [1, 4]: 14.6%

COc1ccc(NC(=S)Nc2nc(C)c(O[Si](c3ccccc3)(c3ccccc3)C(C)(C)C)c(C)c2C)cc1 [Compound 17-12c, 1-(5-((tert-Butyldiphenylsilyl)oxy)-3,4,6-trimethylpyridin-2-yl)-3-(4-methoxyphenyl)thiourea]
inhibition at 1 µM [1, 4]: 16%

O=c1[nH]cc(F)c(=O)[nH]1 [5-Fluorouracil, reference compound]
viability at 48 h, 0.01 µM [2]: 93 ± 2.7% | viability at 48 h, 0.1 µM [2]: 89.8 ± 2.7% | viability at 48 h, 1 µM [2]: 75.7 ± 0.6% | viability at 48 h, 10 µM [2]: 71.3 ± 1.7% | viability at 48 h, 100 µM [2]: 59.7 ± 0.2% | IC50 at 48 h [2]: > 100 µM | viability at 48 h, 0.01 µM [3]: 85.5 ± 3.9% | viability at 48 h, 0.1 µM [3]: 77.6 ± 4.6% | viability at 48 h, 1 µM [3]: 61.9 ± 4.2% | viability at 48 h, 10 µM [3]: 48.3 ± 2% | viability at 48 h, 100 µM [3]: 36 ± 2.5% | IC50 at 48 h [3]: 7.6 µM

COc1c(C)nc(NC(=S)Nc2ccc(Cl)c(Cl)c2)c(C)c1C [Compound 17-8b, 1-(3,4-dichlorophenyl)-3-(5-methoxy-3,4,6-trimethylpyridin-2-yl)thiourea]
inhibition at 1 µM [1, 4]: 39.5%

Cc1nc(OC2CCCC2)c(C)c(C)c1O [Compound 28-5, 6-cyclopentyloxy-2,4,5-trimethylpyridin-3-ol]
inhibition at 1 µM [1, 4]: 28.8%

COc1c(C)nc(NC(=S)Nc2cccc(C(F)(F)F)c2)c(C)c1C [Compound 17-9b, 1-(5-Methoxy-3,4,6-trimethylpyridin-2-yl)-3-(3-(trifluoromethyl)phenyl)thiourea]
inhibition at 1 µM [1, 4]: 39%

CCCCOc1nc(C)c(O)c(C)c1C [Compound 28-2, 6-butoxy-2,4,5-trimethylpyridin-3-ol]
inhibition at 1 µM [1, 4]: 48.2%

Cc1nc(NC(=S)Nc2cccc(C(F)(F)F)c2)c(C)c(C)c1OCc1ccccc1 [Compound 17-9a, 1-(5-benzyloxy-3,4,6-trimethylpyridin-2-yl)-3-(3-(trifluoromethyl)phenyl)thiourea]
inhibition at 1 µM [1, 4]: 19.6%

Cc1ccc(NC(=S)Nc2nc(C)c(O)c(C)c2C)cc1 [Compound 18-5, 1-(5-hydroxy-3,4,6-trimethylpyridin-2-yl)-3-(p-tolyl)thiourea]
inhibition at 1 µM [1, 4]: 19.2%

COc1ccc(NC(=S)Nc2nc(C)c(O)c(C)c2C)cc1 [Compound 18-12, 1-(5-Hydroxy-3,4,6-trimethylpyridin-2-yl)-3-(4-methoxyphenyl)thiourea]
inhibition at 1 µM [1, 4]: 13.3%

Cc1nc(NC(=O)NCc2ccccc2)c(C)c(C)c1O [Compound 16-14, 1-benzyl-3-(5-hydroxy-3,4,6-trimethylpyridin-2-yl)urea]
inhibition at 1 µM [1, 4]: 4.9%

Nc1ccc(O)c(C(=O)O)c1 [Compound 5-ASA, 5-aminosalicylic acid, reference compound]
inhibition at 1 µM [1, 4]: 3.8% | inhibition at 1 µM ([1]; 1 μM, Table 8, read-out: 1 μM concentration inhibitory activity): 3.8% | IC50 ([1]; HT-29/U937 adhesion, TNF-α-induced, read-out: IC50 (adhesion inhibition)): 18100 µM

Cc1nc(NC(=S)Nc2cccc(C(F)(F)F)c2)c(C)c(C)c1O[Si](c1ccccc1)(c1ccccc1)C(C)(C)C [Compound 17-9c, 1-(5-((tert-Butyldiphenylsilyl)oxy)-3,4,6-trimethylpyridin-2-yl)-3-(3-(trifluoromethyl)phenyl)thiourea]
inhibition at 1 µM [1, 4]: 25.9%

Cc1ccc(NC(=O)Nc2nc(C)c(O)c(C)c2C)cc1 [Compound 16-9, 1-(5-hydroxy-3,4,6-trimethylpyridin-2-yl)-3-(p-tolyl)urea]
inhibition at 1 µM [1, 4]: 20.1%

Cc1nc(NC(=S)Nc2ccc(Cl)c(Cl)c2)c(C)c(C)c1OCc1ccccc1 [Compound 17-8a, 1-(5-benzyloxy-3,4,6-trimethylpyridin-2-yl)-3-(3,4-dichlorophenyl)thiourea]
inhibition at 1 µM [1, 4]: 17.3%

Cc1nc(OCCC(C)C)c(C)c(C)c1O [Compound 28-4, 6-isopentyloxy-2,4,5-trimethylpyridin-3-ol]
inhibition at 1 µM [1, 4]: 33.2%

Cc1nc(NC(=O)Nc2ccc(C(C)C)cc2)c(C)c(C)c1O [Compound 16-15, 1-(5-hydroxy-3,4,6-trimethylpyridin-2-yl)-3-(4-isopropylphenyl)urea]
inhibition at 1 µM [1, 4]: 11.5%

COc1ccc(NC(=O)Nc2nc(C)c(O)c(C)c2C)cc1 [Compound 16-10, 1-(5-Hydroxy-3,4,6-trimethylpyridin-2-yl)-3-(4-methoxyphenyl)urea]
inhibition at 1 µM [1, 4]: 12.6%

Cc1nc(NC(=O)NC(=O)c2ccccc2)c(C)c(C)c1O [Compound 16-16, N-((5-hydroxy-3,4,6-trimethylpyridin-2-yl)carbamoyl)benzamide]
inhibition at 1 µM [1, 4]: 34.2%

Cc1nc(NC(=O)Nc2ccc(C(F)(F)F)cc2)c(C)c(C)c1O [Compound 16-11, 1-(5-hydroxy-3,4,6-trimethylpyridin-2-yl)-3-(4-(trifluoromethyl)phenyl)urea]
inhibition at 1 µM [1, 4]: 52.7%

Cc1nc(NC(=S)Nc2ccc(Cl)c(Cl)c2)c(C)c(C)c1O[Si](c1ccccc1)(c1ccccc1)C(C)(C)C [Compound 17-8c, 1-(5-((tert-butyldiphenylsilyl)oxy)-3,4,6-trimethylpyridin-2-yl)-3-(3,4-dichlorophenyl)thiourea]
inhibition at 1 µM [1, 4]: 18.8%
